For the assay, the target named is c-Myc template DNA (c-myc quadruplex). Nature of the assay: Quadruplex binding / stop assay (Taq polymerase arrest, capillary electrophoresis).
Setting [1] is: read-out: S DATA, Table 1D, stop assay data.
[2] abbreviates: read-out: Stop Data c-Myc μM, concentration at which 50% of the DNA was arrested (arrested:full-length 1:1).

Read-outs that look alike come from different tables or passages of the source. Where only a bound is given, the exact number is not on record here.

Consider `CC1(C)CC(NC(=O)c2cn3c4c(c(N5CCC(NC(=O)OC(C)(C)C)C5)ccc4c2=O)Oc2cc4ccccc4cc2-3)CC(C)(C)N1` (stereo not shown) [compound 1537], for which the IC50 under setting [1] was 1.75 µM.
Still for that read-out and setting: under `NC1CCN(c2c(F)cc3c(=O)c(C(=O)NCCCN4CCOCC4)cn4c3c2Oc2ccccc2-4)C1` (stereo not shown) [compound 1619] stands greater than 15 µM.
As to `CCOC(CCCNc1c(F)cc2c(=O)c(C(=O)NCCC3CCCN3C)cn3c2c1Oc1cc2ccccc2cc1-3)OCC` (stereo not shown) [compound 463], the IC50 under setting [2] is 0.75 µM.
Turning to `CN(C)CCCCNC(=O)c1cn2c3c(c(NCCCN4CCOCC4)c(F)c(N)c3c1=O)Oc1cc3ccccc3cc1-2` [compound 220], the IC50 under setting [2] is 1.75 µM.
Same read-out and setting: under `CC(C)(C)OC(=O)NC1CCN(c2c(F)cc3c(=O)c(C(=O)NCCc4ccc(N)cc4)cn4c3c2Oc2cc3ccccc3cc2-4)C1` (stereo not shown) [compound 183] stands 1.75 µM.
Turning to `COc1cccc(CCNc2c(F)cc3c(=O)c(C(=O)NCCC4CCCN4C)cn4c3c2Oc2cc3ccccc3cc2-4)c1` (stereo not shown) [compound 289], under setting [2], the IC50 was 1.75 µM.
Consider `CN1CCCC1CCNC(=O)c1cn2c3c(c(NCCN4CCOCC4)c(F)cc3c1=O)Oc1ccccc1-2` (stereo not shown) [compound 1608], for which the IC50 under setting [1] was greater than 15 µM.
With `CC(C)(C)OC(=O)NC1CCN(c2c(F)cc3c(=O)c(C(=O)NCCCCN)cn4c3c2Oc2ccccc2-4)C1` (stereo not shown) [compound 1589], the IC50 under setting [1] was greater than 15 µM.
Still for that read-out and setting: the figure for `CN1CCCC1CCNC(=O)c1cn2c3c(c(N4CCC(c5cnccn5)C4)c(F)cc3c1=O)Oc1ccc(C#N)cc1-2` (stereo not shown) [compound 1776] is 6.8 µM; for `CN1CCCC1CCNC(=O)c1cn2c3c(c(N4CCC(N5CCCCC5)CC4)c(F)cc3c1=O)Oc1cc3ccccc3cc1-2` (stereo not shown) [compound 1483] it is 1.75 µM.
For `CN1CCN(CCCNC(=O)c2cn3c4c(c(NC(=O)CCN5CCCC5)c(F)cc4c2=O)Oc2cc4ccccc4cc2-3)CC1` [compound 88], under setting [2], the IC50 amounted to 2.5 µM.
Same read-out and setting: under `CN1CCN(CCCNC(=O)c2cn3c4c(c(NCCCN5CCN(C)CC5)c(F)cc4c2=O)Oc2cc4c(cc2-3)oc2ccccc24)CC1` [compound 151] stands 1.75 µM; under `CN1CCCC1CCNC(=O)c1cn2c3c(c(NCC4CCCO4)c(F)cc3c1=O)Oc1cc3ccccc3cc1-2` (stereo not shown) [compound 1471], 5 µM; under `CN(C)CCCCNC(=O)c1cn2c3c(c(NCCCN4CCN(C)CC4)c(F)cc3c1=O)Oc1cc3c(cc1-2)oc1ccccc13` [compound 153], 1.75 µM.
For `CN1CCCC1CCNC(=O)c1cn2c3c(c(N4C[C@@H](NC(=O)OC(C)(C)C)[C@H](c5ccccc5)C4)c(F)cc3c1=O)Oc1cc3ccccc3cc1-2` (stereo partly shown) [compound 1514], under setting [1], the IC50 was greater than 15 µM.
Turning to `CN1CCCC1CCN(CC[C@@H]1CCCN1C)C(=O)c1cn2c3c(c(N4CCC(c5cnccn5)C4)c(F)cc3c1=O)Oc1cc3ccccc3cc1-2` (stereo partly shown) [compound 1754], the IC50 under setting [1] was 5 µM.
On the same count and under the same terms, the figure for `NC1CCN(C(=O)c2cn3c4c(c(NCCN5CCOCC5)c(F)cc4c2=O)Oc2ccccc2-3)C1` (stereo not shown) [compound 1630] is greater than 15 µM.
Turning to `CN(C)CCCCNc1c(F)cc2c(=O)c(C(=O)NCCCN3CCOCC3)cn3c2c1Oc1cc2ccccc2cc1-3` [compound 397], under setting [2], the IC50 was determined as 0.75 µM.
Take `CN1CCCC1CCNC(=O)c1cn2c3c(c(NC4CCN(Cc5ccccc5)CC4)c(F)cc3c1=O)Oc1cc3ccccc3cc1-2` (stereo not shown) [compound 258]: the IC50 under setting [2] came out at 1.75 µM.
Still for that read-out and setting: under `O=C(NCCN1CCCC1)c1cn2c3cc4oc5cc([N+](=O)[O-])ccc5[nH]c4cc3oc3c(NCCCN4CCOCC4)c(F)cc(c1=O)c32` [compound 554] stands 0.375 µM; under `CN1CCCC1CCNC(=O)c1cn2c3cc4c(=O)c5ccccc5c(=O)c4cc3oc3c(N4CCC(NC(=O)OC(C)(C)C)C4)c(F)cc(c1=O)c32` (stereo not shown) [compound 168], 1.75 µM.
In the case of `COc1ccc(OC)c(CCNc2c(F)cc3c(=O)c(C(=O)NCCC4CCCN4C)cn4c3c2Oc2cc3ccccc3cc2-4)c1` (stereo not shown) [compound 291], under setting [2], the IC50 was found to be 1.75 µM.
Same read-out and setting: the figure for `CN1CCN(CCCNC(=O)c2cn3c4c(c(N5CC6CCCNC6C5)c(F)cc4c2=O)Oc2cc4ccccc4cc2-3)CC1` (stereo not shown) [compound 461] is 0.75 µM; for `CN(C)CCCCNC(=O)c1cn2c3c(c(N4CCC(N)C4)ccc3c1=O)Oc1cc3ccccc3cc1-2` (stereo not shown) [compound 589] it is 0.18 µM.
Regarding `CC(C)C(CO)Nc1c(F)cc2c(=O)c(C(=O)NCCC3CCCN3C)cn3c2c1Oc1cc2ccccc2cc1-3` (stereo not shown) [compound 1747], the IC50 under setting [1] is greater than 15 µM.
In the case of `COc1ccc(CCNc2c(F)cc3c(=O)c(C(=O)NCCC4CCCN4C)cn4c3c2Oc2cc3ccccc3cc2-4)cc1` (stereo not shown) [compound 286], the IC50 under setting [2] came out at 1.75 µM.
As for `CCN(CC)CCCC(C)NC(=O)c1cn2c3c(c(NCCc4ccc(OC)c(OC)c4)c(F)cc3c1=O)Oc1cc3ccccc3cc1-2` (stereo not shown) [compound 1758], under setting [1], the IC50 amounted to 9.4 µM.
Still for that read-out and setting: the figure for `CN(C)CCCCNC(=O)c1cn2c3c(c(NCCCN4CCN(C)CC4)ccc3c1=O)Oc1cc3ccccc3cc1-2` [compound 1555] is 0.75 µM.
Regarding `CN1CCN(CCCNC(=O)c2cn3c4cc5c(cc4oc4c(NCCCN6CCOCC6)c(F)cc(c2=O)c43)c(=O)c2ccccc25)CC1` [compound 209], under setting [2], the IC50 turned out to be 1.75 µM.
On the same count and under the same terms, the figure for `CN1CCN(c2c(F)cc3c(=O)c(C(=O)N4CCC(N)C4)cn4c5cc6c(=O)c7ccccc7c(=O)c6cc5oc2c34)CC1` (stereo not shown) [compound 97] is 2.5 µM.
As for `CN1CCCC1CCNC(=O)c1cn2c3c(c(NCCCCO)c(F)cc3c1=O)Oc1cc3ccccc3cc1-2` (stereo not shown) [compound 1661], the IC50 under setting [1] is 1.75 µM.
Still for that read-out and setting: under `O=C(NCCN1CCCC1)c1cn2c3c(c(SCCc4cnccn4)c(F)cc3c1=O)Oc1cc(Cl)ccc1-2` [compound 1784] stands greater than 15 µM; under `CC(C)N1CCN(c2c(F)cc3c(=O)c(C(=O)NC4CC(C)(C)NC(C)(C)C4)cn4c3c2Oc2ccccc2-4)CC1` [compound 1571], greater than 15 µM.
In the case of `Nc1c(F)c(F)c2c3c1c(=O)c(C(=O)O)cn3-c1cc3ccccc3cc1O2` [compound 13], under setting [2], the IC50 is 1.75 µM.
`CN1CCCC1CCNC(=O)c1cn2c3c(c(NC(=O)C4CCCNC4)c(F)cc3c1=O)Oc1cc3ccccc3cc1-2` (stereo not shown) [compound 1480]: the IC50 under setting [1] was 1.75 µM.
On to `CN1CCCC1CCNc1ccc2c(=O)c(C(=O)NCCCN3CCOCC3)cn3c2c1Oc1cc2ccccc2cc1-3` (stereo not shown) [compound 269], for which the IC50 under setting [2] came to 1.75 µM.
Consider `CN1CCCC1CCNC(=O)c1cn2c3c(c(NC[C@H]4CCCO4)c(F)cc3c1=O)Oc1cc3ccccc3cc1-2` (stereo partly shown) [compound 1735], for which, under setting [1], the IC50 turned out to be 2.5 µM.
Same read-out and setting: the figure for `CN1CCCC1CCNC(=O)c1cn2c3c(c(SCCc4cnccn4)c(SCCc4cnccn4)cc3c1=O)Oc1cc3ccccc3cc1-2` (stereo not shown) [compound 1774] is 5.8 µM; for `O=C(NCCC1CCCN1)c1cn2c3c(c(NCCN4CCCC4)ccc3c1=O)Oc1cc3ccccc3cc1-2` (stereo not shown) [compound 1516] it is 1.75 µM; for `O=C(NCCCN1CCOCC1)c1cn2c3c(c(NCCCN4CCOCC4)ccc3c1=O)Oc1cc3ccccc3cc1-2` [compound 1530] it is greater than 15 µM.
Consider `CN(C)CCCCNC(=O)c1cn2c3c(c(N4CCC(N)C4)c(F)c(N)c3c1=O)Oc1cc3ccccc3cc1-2` (stereo not shown) [compound 237], for which the IC50 under setting [2] stood at 1.75 µM.
As to `O=C(O)c1cn2c3cc4oc5cc([N+](=O)[O-])ccc5[nH]c4cc3oc3c(NCCN4CCCC4)c(F)cc(c1=O)c32` [compound 17], under setting [2], the IC50 was 0.75 µM.
Same read-out and setting: the figure for `CN(C)CCCNC(=O)c1cn2c3c(c(N4CCC(N)C4)c(F)cc3c1=O)Oc1cc3ccccc3cc1-2` (stereo not shown) [compound 246] is 1.75 µM.
As to `O=C(CNCCN1CCCC1)N[C@@H]1CCN(c2c(F)cc3c(=O)c(C(=O)N4CCOCC4)cn4c3c2Oc2cc3c(cc2-4)oc2ccccc23)C1` [compound 180], under setting [2], the IC50 was 1.75 µM.
On to `NC1CCN(c2c(F)cc3c(=O)c(C(=O)NCC4CCCO4)cn4c3c2Oc2cc3ccccc3cc2-4)C1` (stereo not shown) [compound 1693], for which the IC50 under setting [1] is greater than 15 µM.
For `CN1CCCC1CCNC(=O)c1cn2c3c(c(N4CCC(NC(=O)OC(C)(C)C)CC4)c(F)cc3c1=O)Oc1cc3ccccc3cc1-2` (stereo not shown) [compound 262], the IC50 under setting [2] was 1.75 µM.
For `CN1CCCC1CCNc1c(F)cc2c(=O)c(-c3nc4ccccc4s3)cn3c2c1Oc1cc2ccccc2cc1-3` (stereo not shown) [compound 114], the IC50 under setting [2] is 1.75 µM.
Same read-out and setting: under `CN(C)CCCCNC(=O)c1cn2c3cc4oc5cc([N+](=O)[O-])ccc5[nH]c4cc3oc3c(NCCCCN(C)C)c(F)cc(c1=O)c32` [compound 587] stands 0.18 µM; under `O=C(NCCCN1CCOCC1)c1cn2c3cc4oc5cc([N+](=O)[O-])ccc5[nH]c4cc3oc3c(NCCN4CCCC4)c(F)cc(c1=O)c32` [compound 552], 0.375 µM.
With `NC1CCN(c2c(F)cc3c(=O)c(C(=O)NCCc4c[nH]c5ccccc45)cn4c3c2Oc2cc3ccccc3cc2-4)C1` (stereo not shown) [compound 1696], under setting [1], the IC50 is greater than 15 µM.
For `CN(C)CCCCNC(=O)c1cn2c3c(c(NCCN4CCOCC4)c(F)cc3c1=O)Oc1cc3ccccc3cc1-2` [compound 59], under setting [2], the IC50 is 2.5 µM.
For the compound `CN(C)CCCCNC(=O)c1cn2c3c(c(NCCN4CCCC4)c(F)cc3c1=O)Oc1ccccc1-2` [compound 1598], under setting [1], the IC50 was greater than 15 µM.
Still for that read-out and setting: under `CC1(C)CC(NC(=O)c2cn3c4c(c(NCCN5CCOCC5)c(F)cc4c2=O)Oc2ccccc2-3)CC(C)(C)N1` [compound 1615] stands greater than 15 µM.
Regarding `CC1(C)CC(NC(=O)c2cn3c4c(c(NCCCN5CCOCC5)ccc4c2=O)Oc2cc4ccccc4cc2-3)CC(C)(C)N1` [compound 1531], the IC50 under setting [1] was greater than 15 µM.
For the compound `CN1CCCC1CCNC(=O)c1cn2c3c(c(N4CCC(C(N)=O)CC4)c(F)cc3c1=O)Oc1cc3ccccc3cc1-2` (stereo not shown) [compound 261], the IC50 under setting [2] was determined as 1.75 µM.
In the case of `CN1CCCC1CCNC(=O)c1cn2c3c(c(NCC4CCNC4)c(F)cc3c1=O)Oc1cc3ccccc3cc1-2` (stereo not shown) [compound 559], the IC50 under setting [2] is 0.375 µM.
Turning to `NC1CCN(c2c(F)cc3c(=O)c(C(=O)NCCCN4CCOCC4)cn4c5cc6c(=O)c7ccccc7c(=O)c6cc5oc2c34)C1` (stereo not shown) [compound 551], the IC50 under setting [2] was determined as 0.375 µM.
In the case of `CN1CCN(CCCNC(=O)c2cn3c4cc5c(cc4oc4c(N6CC[C@H](NC(=O)OC(C)(C)C)C6)c(F)cc(c2=O)c43)c(=O)c2ccccc25)CC1` [compound 427], the IC50 under setting [2] turned out to be 0.75 µM.

The record behind these values is patent publication US7507727B2, “Substituted quinobenzoxazine analogs and methods of using thereof” (Cylene Pharmaceuticals, Inc., priority 2003, dated 2009).
